Data on 12 compounds can be found in patent publication EP1321467A2, “High affinity inhibitors for target validation and uses thereof” (Princeton University, priority 1999, dated 2000).

Each structure is given as a SMILES string. Entries after “also recorded” stand apart in the source; their conditions may differ. Read-outs that look alike come from different tables or passages of the source.

Experiment [1] addresses T1, I338G v-Src (Rous sarcoma virus subgroup A, UniProt P00524, DEL77-225/I338G).
T1 construct: catalytic domain of the target kinase, I338G v-Src, which was expressed in bacteria and purified as a glutathione-S-transferase (GST) fusion protein; made in house; host or cells: E. coli DH5a, pGEX-KT
The experiment can be described thus: biochemical. Type of experiment: biochemical.

Experiment [2] deals with B cell receptor (BCR) mediated phosphorylation cascade. Briefly: Murine B cell assay, phosphotyrosine blot. The arrangement: dose or concentration left out as unconfirmed. Type of experiment: cell-based. The note with it: 30 minutes, anti-IgM stimulation. Here is the method:
Murine B Cell Assay: Splenic lymphocytes were isolated from 6-20 week old Balb/c or C57/B6 mice. The cells were washed out of the spleen into RPMI media containing 1 mg/mL DNase in and the red blood cells were lysed in 17 mM tris-ammonium chloride, pH 7.2, Approximately 4x10^6 cells were incubated at 37°C for 30 minutes with […] of 3g or 2 in 1.1% DMSO. B cell stimulation was initiated by the addition of 2 mg of goat anti-mouse IgM (Jackson Immuno Research, cat# 115-005-075) and subsequent incubation for 5 minutes at 37(C. The cells were isolated by centrifugation (13,000 rpm, 2 min) and lysed (lysis buffer: 1% Triton X-100, 50 mM tris pH 7.4, 2 mM EDTA, 150 mM NaCl, […] PMSF, 2 mM sodium orthovanadate, 10 mg/mL leupeptin, 10 mg/mL apoprotin). The cellular debris was then pelleted at 13,000 rpm for 15 min. Cellular proteins were separated by 10% polyacrylamide gel electrophoresis and transferred to a nitrocellulose membrane by Western blotting. Phosphotyrosine containing proteins were visualized by immunoblotting with anti-phosphotyrosine antibody (Upstate Biotechnology, Inc.).

Experiment [3] relates to I338G v-Src. The experiment can be described thus: biochemical. Type of experiment: biochemical. The note with it: for increase in affinity over previously optimized inhibitors of wild type kinases: versus PP1 on Fyn.
Experiment [4] concerns the target T2, WT v-Src (Rous sarcoma virus subgroup A, UniProt P00524, DEL77-225).
T2 construct: glutathione-S-transferase fusion proteins of wild type v-Src catalytic domain, I338G v-Src SH1, and WT Fyn into the pGEX-KT plasmid; GST (N); made in house; host or cells: E. coli DH5a, pGEX-KT
The experiment can be described thus: biochemical. Type of experiment: biochemical. The arrangement: in vitro inhibition of WT v-Src / inhibition of WT v-Src: dose or concentration left out as unconfirmed.

Experiment [5] deals with I338G v-Src transformed NIH3T3 cells. Briefly: Inhibition of v-Src in NIH3T3 fibroblasts, phosphotyrosine blot. Type of experiment: cell-based, murine.
Experiment [6] concerns WT v-Src transformed NIH3T3 cells. Described as above. Type of experiment: cell-based, murine.
Experiment [7] has as its system I338G v-Src transformed NIH3T3 fibroblasts. The experiment can be described thus: Microscopy of cell morphology and polymerized actin. Format: cell-based, murine.
Experiment [8] has as its system WT v-Src transformed NIH3T3 fibroblasts. Described as above. Type of experiment: cell-based, murine. The note with it: 250 nM 6a, 16 hours.
For experiment [9], the system named is Jurkat cells. The experiment can be described thus: Tyrosine phosphorylation in pervanadate treated Jurkat cells. Type of experiment: cell-based, human. The note with it: 500nM 6a, 30 min, then 0.5 mM pervanadate.
Experiment [10] relates to wild-type protein tyrosine kinase. Briefly: Screening of nucleotide analogs in murine lymphocyte lysate, anti-phosphotyrosine immunoblot. Type of experiment: biochemical. As to conditions: 100 uM nucleotide triphosphate, 37°C, 5 min. In general terms: A western blot detects proteins with antibodies after separation by electrophoresis.
Experiment [11] concerns the target T3, PKCd (Homo sapiens, UniProt Q05655).
T3 construct: 6-His; made in house
Briefly: In vitro kinase inhibition assay. Type of experiment: biochemical. As to conditions: concentrations up to 300 mM.

Experiment [12] addresses T4, PKA (Homo sapiens, UniProt P17612).
T4 construct: purchased Pierce
The experiment can be described thus: In vitro kinase inhibition assay. Type of experiment: biochemical. As to conditions: concentrations up to 300 mM. An excerpt: (§1) PKA was purchased (Pierce) and used without further purification.

Experiment [13] concerns the target T5, T339G Fyn (Homo sapiens, UniProt P06241, T342G).
T5 construct: GST (N); made in house; host or cells: E. coli DH5a, pGEX-KT
The experiment can be described thus: In vitro kinase inhibition assay. Format: biochemical.
Source text: as §1

Experiment [14] concerns the target T6, WT Fyn (Homo sapiens, UniProt P06241).
T6 construct: GST (N); made in house; host or cells: E. coli DH5a, pGEX-KT
Briefly: In vitro kinase inhibition assay. The arrangement: in vitro inhibition of Fyn: dose or concentration left out as unconfirmed. As to conditions: for IC50: Table 3. Type of experiment: biochemical.

T6 sequence (P06241 1-534 isoform P06241-2): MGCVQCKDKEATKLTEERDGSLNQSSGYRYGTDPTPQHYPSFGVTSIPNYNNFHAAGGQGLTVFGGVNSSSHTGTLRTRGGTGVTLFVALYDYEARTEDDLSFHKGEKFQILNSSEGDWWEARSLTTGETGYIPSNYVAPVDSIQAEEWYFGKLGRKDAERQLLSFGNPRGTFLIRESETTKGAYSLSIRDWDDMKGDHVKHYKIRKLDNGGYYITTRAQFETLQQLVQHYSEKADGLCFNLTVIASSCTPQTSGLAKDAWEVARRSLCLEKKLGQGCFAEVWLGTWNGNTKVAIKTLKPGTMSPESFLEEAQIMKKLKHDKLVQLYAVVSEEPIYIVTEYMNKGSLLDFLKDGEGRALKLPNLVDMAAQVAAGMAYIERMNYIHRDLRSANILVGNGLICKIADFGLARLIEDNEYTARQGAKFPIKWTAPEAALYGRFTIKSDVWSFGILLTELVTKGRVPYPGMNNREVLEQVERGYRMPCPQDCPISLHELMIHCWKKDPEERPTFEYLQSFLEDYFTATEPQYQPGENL
T3 sequence (Q05655 whole entry, species assumed): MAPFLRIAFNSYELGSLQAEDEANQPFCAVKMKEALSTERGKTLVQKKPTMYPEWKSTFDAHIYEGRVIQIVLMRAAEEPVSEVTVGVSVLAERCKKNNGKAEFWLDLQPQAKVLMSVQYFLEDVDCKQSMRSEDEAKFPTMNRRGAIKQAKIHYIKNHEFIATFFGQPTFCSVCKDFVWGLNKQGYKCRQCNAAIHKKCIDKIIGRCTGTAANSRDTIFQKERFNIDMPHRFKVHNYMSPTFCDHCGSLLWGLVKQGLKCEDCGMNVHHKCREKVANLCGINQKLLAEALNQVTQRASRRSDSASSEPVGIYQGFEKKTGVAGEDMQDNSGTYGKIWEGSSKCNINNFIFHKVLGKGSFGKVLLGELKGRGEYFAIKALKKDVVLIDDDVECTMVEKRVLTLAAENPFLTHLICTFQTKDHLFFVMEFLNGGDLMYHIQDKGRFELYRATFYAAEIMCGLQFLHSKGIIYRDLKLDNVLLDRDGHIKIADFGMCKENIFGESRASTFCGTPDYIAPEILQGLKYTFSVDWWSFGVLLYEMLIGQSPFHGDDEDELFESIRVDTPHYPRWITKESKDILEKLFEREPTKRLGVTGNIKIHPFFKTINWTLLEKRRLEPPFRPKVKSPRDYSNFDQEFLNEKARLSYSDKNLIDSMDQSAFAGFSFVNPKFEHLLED
T5 sequence (P06241 1-534 isoform P06241-2 T339G): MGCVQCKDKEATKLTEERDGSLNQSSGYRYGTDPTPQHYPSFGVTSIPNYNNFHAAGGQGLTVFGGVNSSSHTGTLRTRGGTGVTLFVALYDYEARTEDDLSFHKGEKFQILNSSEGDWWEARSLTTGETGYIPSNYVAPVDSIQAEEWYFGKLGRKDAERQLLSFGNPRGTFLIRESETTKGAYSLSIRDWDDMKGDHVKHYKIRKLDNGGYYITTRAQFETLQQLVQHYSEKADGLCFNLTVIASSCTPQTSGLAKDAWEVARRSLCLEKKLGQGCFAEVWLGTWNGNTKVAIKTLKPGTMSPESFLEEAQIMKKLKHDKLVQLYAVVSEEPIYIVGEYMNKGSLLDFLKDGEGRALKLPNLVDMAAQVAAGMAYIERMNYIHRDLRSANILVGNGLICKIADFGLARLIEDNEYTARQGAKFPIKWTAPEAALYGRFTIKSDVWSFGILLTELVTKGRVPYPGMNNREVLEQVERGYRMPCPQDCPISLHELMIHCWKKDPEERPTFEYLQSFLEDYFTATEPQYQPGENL

On to `CC(C)(C)n1nc(-c2ccccc2)c2c(N)ncnc21` [2 (Figure 14), 4-Amino-1-tert-butyl-3-phenylpyrazolo [3,4-d] pyrimidine], for which the IC50 in experiment [1] turned out to be 430 nM. In addition, the “phosphotyrosine pattern of B cell stimulation” value in [2] is “significant reduction in tyrosine phosphorylation”.

Regarding `CC(C)(C)n1nc(-c2cccc3ccccc23)c2c(N)ncnc21` [4-amino-1-(tert-butyl)-3-(1'-naphthyl)pyrazolo[3,4-d]pyrimidine], the IC50 was found to be 1.5 nM in experiment [1] and 1000 nM in [4]. Besides, the “increase in affinity over previously optimized inhibitors of wild type kinases” value in experiment [3] is 20 fold. For the same compound, the tyrosine phosphorylation result in experiment [5] (varying concentrations of 6a, 30 min) is “strongly diminishes tyrosine phosphorylation in a concentration dependent manner within minutes”; in experiment [9] it was “no detectable decrease in phosphorylation”. Besides, the phosphotyrosine signal result in experiment [6] (500nM 6a) is given as “no loss of phosphotyrosine signal”. The “actin fibers and morphology” value is “clear actin fibers and appear indistinguishable from normal NIH3T3 fibroblasts; also recorded: selectively acquire a flattened morphology and selectively regain actin stress” in experiment [7] (250 nM 6a, 16 hours); “indistinguishable from untreated wild type cells; also recorded: no effect on this non-mutant cell line” in experiment [8].

Turning to `CC(C)(C)n1nc(-c2ccccc2)c2c(N)ncnc21` [Compound 1], the “level of protein tyrosine phosphorylation” value in experiment [10] is listed as “some ability to serve as cellular protein tyrosine kinase substrates”.

In the case of `CC(C)(C)c1ccc(C(=O)Nc2ncnc3c2c(-c2ccccc2)nn3C(C)(C)C)cc1` [Compound 3g, 4-(p-tert-butyl)benzamido-1-tert-butyl-3-phenylpyrazolo[3,4-d]pyrimidine], the IC50 in experiment [1] (read-out: IC50) is 430 nM; in [1] (text b249, read-out: IC50) it was 430 nM; in [5] (Mus musculus, NIH3T3, read-out: IC50 for p36 phosphotyrosine signal) it was roughly 50000 nM. For the same compound, the “inhibits the engineered v-Src more effectively than WT Fyn” value in [3] (in vitro) is “over 700 times”. The “selectivity for I338G v-Src with respect to wild type v-Src” value (“selectivity … to wild type v-Src” for short) in experiment [3] (in vitro) is on record as no less than 1000 fold. The “inhibition of WT v-Src” value in experiment [4] (limit of solubility) is “no inhibition”. Moreover, the “inhibition of PKCd” value in [11] was “not detectably inhibited”. For the same compound, the “inhibition of PKA” value in [12] is “not detectably inhibited”. For the same compound, the “selectivity for T339G Fyn over WT Fyn” value in experiment [13] is “greater than 300 fold”. The “phosphotyrosine pattern of B cell stimulation” value in [2] is reported as “no effect on the phosphotyrosine pattern of B cell stimulation”. For the same compound, the “cellular IC50 relative to the in vitro value” in experiment [5] was “roughly 100 times”. In addition, the tyrosine phosphorylation entry in experiment [5] (3g, 12 hours) is “dramatic diminution in the tyrosine phosphorylation of the putative v-Src substrate, p36; also recorded: blocks p36 phosphorylation in I338G v-Src”; in experiment [6] (3g, 12 hours), “no loss of tyrosine phosphorylation”. For the same compound, the “cell morphology and polymerized actin” value in experiment [7] (3g, 48 hours) is “dramatic changes in cell morphology which are consistent with the reversal of transformation; also recorded: defined polymerized actin strings, strongly resembling the actin formations of non-transformed NIH3T3 fibroblasts; also recorded: selectively acquire a flattened morphology and selectively regain Actin stress fibers”.

As to `CC(C)(C)n1nc(-c2ccc3ccccc3c2)c2c(N)ncnc21` [Compound 6b, 4-amino-1-(tert-butyl)-3-(2'-naphthyl)pyrazolo[3,4-d]pyrimidine], in experiment [3], the “increase in affinity over previously optimized inhibitors of wild type kinases” value was found to be 20 fold.

Consider `CC(C)(C)n1nc(-c2cccc(OCc3ccccc3)c2)c2c(N)ncnc21` [Compound 6d, 4-amino-1-(tert-butyl)-3-(m-benzyloxyphenyl)pyrazolo[3,4-d]pyrimidine], for which, in experiment [3] (in vitro), the “selectivity for I338G v-Src with respect to wild type Fyn” value was greater than 100 fold.

In the case of `CC(C)(C)n1nc(-c2cccc(OCc3c(Cl)cccc3Cl)c2)c2c(N)ncnc21` [Compound 6e, 4-amino-1-(tert-butyl)-3-(m-(2',6'-dichloro)benzyloxyphenyl) pyrazolo[3,4-d]pyrimidine], the IC50 in experiment [1] (Table 3, read-out: 1338G v-Src) amounted to 130 nM; in experiment [4] (Table 3, read-out: vSrc), 300000 nM.

Take `CC(C)(C)n1nc(Cc2ccc3c(c2)OCO3)c2c(N)ncnc21` [Compound 6f, 4-amino-1-(tert-butyl)-3-piperonylpyrazolo[3,4-d]pyrimidine]: in experiment [3] (in vitro), the “selectivity … to wild type v-Src” value is recorded as roughly 120 fold.

Turning to `CC(C)(C)c1ccc(-c2nn(C(C)(C)C)c3ncnc(N)c23)cc1` [Compound 6g, 4-amino-1-(tert-butyl)-3-(p-tert-butylphenyl)pyrazolo[3,4 d]pyrimidine], the IC50 in [1] (Table 3, read-out: 1338G v-Src) amounted to 99 nM; in experiment [4] (Table 3, read-out: vSrc) it was 65000 nM.

`CC(C)(C)n1nc(COc2cccc3ccccc23)c2c(N)ncnc21` [Compound 6i, 4-amino-1(tert-butyl)-3-(1'-naphthoxymethyl)pyrazolo[3,4-d]pyrimidine]: the IC50 was 45 nM in [1] (Table 3, read-out: 1338G v-Src); greater than 300000 nM in experiment [4] (Table 3, read-out: vSrc); greater than 300000 nM in experiment [14]. In experiment [3] (in vitro), the “selectivity … to wild type v-Src” value was greater than 6500 fold.

In the case of `CC(C)(C)n1nc(Cc2ccc3ccccc3c2)c2c(N)ncnc21` [Compound 6j, 4-amino-1-(tert-butyl)-3-(2'-naphthylmethyl)pyrazolo[3,4-d]pyrimidine], the IC50 in experiment [1] (Table 3, read-out: 1338G v-Src) was 20 nM; in [4] (Table 3, read-out: vSrc) it was greater than 300000 nM; in [14] it was greater than 300000 nM.

`OC[C@H]1O[C@@H](n2cnc3c(NOC4CCCC4)ncnc32)[C@H](O)[C@@H]1O` [N-6 cyclopentyloxyadenosine]: in [4], the “in vitro inhibition of WT v-Src” value was “no detectable in vitro inhibition”. Also, in experiment [14], the “in vitro inhibition of Fyn” value is “no detectable in vitro inhibition”.
